Experimental data: publication PMC6290777, “Inhalation of the prodrug PI3K inhibitor CL27c improves lung function in asthma and fibrosis” (Nature Communications, 2018)

Key:
class I PI3K = conditions: purified proteins; cited from earlier work
[1] = Pharmacokinetics of a single dose of CL27c (i.v. or p.o.); assay type: in vivo, C57BL/6J mice; conditions: for Cmax: plasma; for Cmax / AUClast / AUCtot / CL (apparent total body clearance) / F (bioavailability) / Tmax / Vss / Vz / t½ (elimination half-life): label = analyte
Protocol: (§1) To define whether this prodrug was suitable for inhaled administration, CL27c was studied to evaluate selected ADME (absorption, distribution, metabolism, and excretion) and pharmacokinetic properties. First, stability of CL27c and CL27e was analyzed in mouse plasma (Supplementary Table 1) and in mouse, rat, and human liver microsomes in the presence of nicotinamide adenine dinucleotide phosphate (NADPH; Supplementary Table 2). Next, clearance of CL27c was analyzed in C57BL/6J mice after either intra-venous or oral administration. […] Clearance of CL27c and CL27e after oral administration could not be determined due to their low bioavailability (Supplementary Table 3). Next, pharmacokinetics after inhalation was studied in C57BL/6J mice after delivering an aerosolized micro-suspension of CL27c. As shown in Table 1 and Supplementary Fig. 1b, CL27c dose-dependently reached the lungs and its metabolite CL27e was detectable after inhalation of the highest dose. […] Therefore, the inhaled prodrug promotes local effects but prevents systemic absorption of pharmacologically relevant amounts of the active compound.
Supplementary Table 3. Pharmacokinetic parameters of a single dose of CL27c […]
I.V. (10 mg/kg) P.O. (50 mg/kg) […]
Legend:I.V,. Intravenous administration; P.O., […]; Cmax, Maximum (peak) plasma drug concentration; AUClast Area under the plasma concentration-time curve from time zero to time of last measurable concentration; AUCtot Area under the plasma-concentration time curve; t½, Elimination half -life: CL, Apparent total body clearance of CL27c from plasma; Vz, Apparent volume of distribution during terminal phase; Vss, Apparent volume of distribution at steady state;F, Bioavalability.

[2] = Pharmacokinetics of aerosolized CL27c (analysis of lung delivery); assay type: in vivo, C57BL/6J mice; conditions: for Lung concentration / Plasma concentration: label = analyte; for detectability in plasma after inhalation: aerosolized CL27c, traces only 1 h after the highest dose
Protocol: as §1
Mice were subjected to a 30-min aerosolized treatment with CL27c or vehicle (0.5% tyloxapol/saline solution)-containing solutions, where tyloxapol was added to improve distribution in the lungs. Mice were anesthetized at 1, 3, and 6 h after aerosolized treatment, the trachea was exposed and a 1.7-mm-outside-diameter polyethylene catheter was inserted and they were subsequently sacrificed. A syringe with a needle (27 G) pretreated with heparin was inserted into the vena cava above the renal veins to collect blood. After the collection of blood, lungs were subjected to bronchoalveolar lavage with three different 500 µl aliquots of acetonitrile. At the same time blood samples were centrifuged 180× g at 22 °C for 10 min, plasma supernatant was collected and treated with 1 volume of acetonitrile to precipitate proteins. Samples were then agitated on a high-speed vortex for 2 min and further mixed using a rotary shaker for 2 min. the precipitated proteins were then pelleted by centrifugation at 10,000× g for 10 min and the supernatant was transferred in a new tube. BALF and plasma extracts were subsequently subjected to Liquid chromatography-mass spectrometry.
A Nexera LC-30AD (Shimadzu, Milan, Italy) instrument equipped with a Luna C18 150 × 2.1 mm, 3 µm particle size column (Phenomenex, Milan, Italy) was used to carry out chromatography analysis. The eluents (VWR, Milan, Italy) were acetonitrile (A) and 0.1% formic acid (B) in the following gradient conditions: from 10 to 54% of solvent A in 21 min, up to 100% of A in 2 min and re-equilibration. The injection volume was 10 µL, the flow rate was […] and the column was maintained at the temperature of 40 °C. For the chromatographic separation, an octadecylsilica column was used. The employed mass analyzer was a Q-trap used in multiple reaction-monitoring (MRM) mode. With this technique, it was possible to detect and quantify simultaneously the drug and the metabolite with high selectivity and sensitivity. A QTrap-5500 (Sciex, Milan, Italy) instrument, dressed with a Turbo Ion Spray source, was utilized to analyze samples. The source parameters were: curtain gas 30 (arbitrary units, a.u.), gas1 40 (a.u.), gas2 55 (a.u.), temperature 500 °C, ion spray voltage 5500 V, declustering potential 200 (a.u), and entrance potential 11 (a.u.). The detector was used in MRM mode and the transitions for each compound were: 446 > 418 m/z and 446 > 401 m/z for CL27C (collision energy 29, collision exit potential 26 and 28, respectively); 432 > 387 m/z and 432 > 404 m/z for CL27e (collision energy 30 and 28, collision exit potential 26 and 27, respectively).

[3] = In vitro plasma stability; assay type: in vitro ADME, mouse
Protocol: as §1
Supplementary Table 1. In vitro plasma half-life (t1/2), (mouse plasma).
Values are the mean of at least triplicate determination in a single experiment.

[4] = aerosolized 2 mg/ml CL27c, 1 h from exposure
[5] = aerosolized 2 mg/ml CL27c, 3 h from exposure
[6] = aerosolized 2 mg/ml CL27c, 6 h from exposure

| Compound | activity in PI3K enzymatic assay (class I PI3K) | Cmax ([1]; CL27c I.V. 10 mg/kg) [ng/mL] | AUClast ([1]; CL27c I.V. 10 mg/kg) [ng·h/mL] | AUCtot ([1]; CL27c I.V. 10 mg/kg) [ng·h/mL] | CL (apparent total body clearance) ([1]; CL27c I.V. 10 mg/kg) [mL/min/kg] | F (bioavailability) ([1]; CL27c I.V. 10 mg/kg) [%] | Tmax ([1]; CL27c I.V. 10 mg/kg) [min] | Vss ([1]; CL27c I.V. 10 mg/kg) [L/kg] | Vz ([1]; CL27c I.V. 10 mg/kg) [L/kg] | t½ (elimination half-life) ([1]; CL27c I.V. 10 mg/kg) [min] | Cmax ([1]; CL27c P.O. 50 mg/kg) [ng/mL] | AUClast ([1]; CL27c P.O. 50 mg/kg) [ng·h/mL] | AUCtot ([1]; CL27c P.O. 50 mg/kg) [ng·h/mL] | F (bioavailability) ([1]; CL27c P.O. 50 mg/kg) [%] | Tmax ([1]; CL27c P.O. 50 mg/kg) [min] | t½ (elimination half-life) ([1]; CL27c P.O. 50 mg/kg) [min] | Lung concentration [2, 4] [ng/g] | Plasma concentration [2, 4] [ng/mL] | Lung concentration [2, 5] [ng/g] | Lung concentration [2, 6] [ng/g] | further results |
| --- | --- | --- | --- | --- | --- | --- | --- | --- | --- | --- | --- | --- | --- | --- | --- | --- | --- | --- | --- | --- | --- |
| O=C(O)c1cccc(Cn2cc(-c3cccc4c(=O)cc(N5CCOCC5)[nH]c34)nn2)c1 [CL27e] | potent pan-class I PI3K inhibitor, acting at nanomolar concentration | 1900 | 980 | 1050 | 191 | 91 | 4.8 | 13.55 | 10.75 | 75 | 290 | 260 | 280 | 4.80 | 30 | 25.8 | 4.5 ± 1.0 | 1.34 ± 0.62 | 0.1 ± 0.1 | 0.5 ± 0.2 | peak plasma concentration relative to CL27c ([1]; 5 min after i.v. administration of CL27c): twice more abundant than CL27c; Plasma concentration [2, 5]: <1 ng/mL; Plasma concentration [2, 6]: <1 ng/mL; detectability in plasma after inhalation [2]: generally undetectable; Concentration in mouse plasma ([3]; time point 0 min): 45.3 ± 14.1 ng/mL; Concentration in mouse plasma ([3]; time point 30 min): 43.6 ± 7.4 ng/mL |
| COC(=O)c1cccc(Cn2cc(-c3cccc4c(=O)cc(N5CCOCC5)[nH]c34)nn2)c1 [CL27c] | inactive | 930 | 870 | 870 | 191 | 100 | 4.8 | 13.55 | 10.75 | 39 | 220 | 150 | 390 | 3.40 | 30 | 63 | 169.2 ± 17.7 | 1.2 ± 0.1 | 34.2 ± 5.2 | 41.6 ± 6.5 | Lung concentration ([2]; aerosolized 0.2 mg/ml CL27c, 1 h from exposure): 32.6 ± 5.1 ng/g; Lung concentration ([2]; aerosolized 0.2 mg/ml CL27c, 3 h from exposure): 10.9 ± 0.5 ng/g; Lung concentration ([2]; aerosolized 0.2 mg/ml CL27c, 6 h from exposure): 10.9 ± 1.8 ng/g; detectability in plasma after inhalation [2]: generally undetectable; Concentration in mouse plasma ([3]; time point 0 min): 113.2 ± 12.8 ng/mL; Concentration in mouse plasma ([3]; time point 30 min): 6.2 ± 2.8 ng/mL |
